For experiment [1], the system named is cellular histone deacetylase enzymatic activity in Jurkat E6-1 cells. Kind of experiment: Inhibition of cellular HDAC activity in Jurkat E6-1 cells, fluorogenic substrate Boc-Lys(Tfa)-AMC. In kind it is cell-based. As to conditions: Homo sapiens, read-out: Cell IC50. The procedure, abridged:
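Jurkat E6.1 cells (75,000/well) were pre-treated with compound for 2 h at 37 °C, then given Boc-Lys(Tfa)-AMC (5× stock 500 μM) for 3 h. Cells were lysed with trypsin-containing buffer overnight, and released AMC fluorescence was read at Ex 355/Em 460 nm over a 16-point dilution series.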

The target in experiment [2] is human catalytic domain HDAC4 protein (amino acids 648-1032) (Homo sapiens (Human), UniProt P56524). Kind of experiment: Inhibition of HDAC4 catalytic domain enzymatic activity, fluorogenic substrate Boc-Lys(Tfa)-AMC. As to conditions: HDAC4 catalytic domain enzyme, read-out: Biochemical HDAC4 IC50.

These results are taken from patent US9783488B2 (CHDI Foundation, Inc., priority 2013, dated 2017).

Some results are limits rather than exact numbers.

Sequence of human catalytic domain HDAC4 protein (amino acids 648-1032) (P56524 648-1032): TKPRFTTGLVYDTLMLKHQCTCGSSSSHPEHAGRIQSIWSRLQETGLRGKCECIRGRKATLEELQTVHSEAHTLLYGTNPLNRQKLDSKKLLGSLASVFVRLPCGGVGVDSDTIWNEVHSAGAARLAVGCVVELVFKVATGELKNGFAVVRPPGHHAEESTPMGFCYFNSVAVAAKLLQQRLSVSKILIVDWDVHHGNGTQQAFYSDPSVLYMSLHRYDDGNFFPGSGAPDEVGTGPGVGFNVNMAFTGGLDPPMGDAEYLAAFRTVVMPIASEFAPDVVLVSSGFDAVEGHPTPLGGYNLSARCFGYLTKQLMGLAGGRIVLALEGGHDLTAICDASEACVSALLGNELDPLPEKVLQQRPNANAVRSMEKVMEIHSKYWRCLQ

For `Cc1c(F)cccc1[C@]1(C(=O)NO)CC[C@H](c2ccc3cnn(C)c3c2)CC1` [Example 104, (1r,4r)-1-(3-fluoro-2-methylphenyl)-N-hydroxy-4-(1-methyl-1H-indazol-6-yl)cyclohexanecarboxamide], the IC50 was 0.65 µM in experiment [1] and 0.95 µM in experiment [2].

In the case of `O=C(NO)C1(c2ccccc2)CCCCCC1` [Example 106, N-hydroxy-1-phenylcycloheptanecarboxamide], the IC50 amounted to 41.1 µM in experiment [1] and 6.9 µM in experiment [2].

Consider `Cc1c(F)cccc1C1(C(=O)NO)CCCCCC1` [Example 107, 1-(3-Fluoro-2-methylphenyl)-N-hydroxycycloheptanecarboxamide], for which the IC50 in experiment [1] and in experiment [2] was above 50 µM throughout.

The term IC50 denotes the point on the concentration scale where inhibition reaches its midpoint.
